Test results taken from patent publication US20080026996A1, “Selective Vpac2 Receptor Reptide Agonists” (ELI LILLY AND COMPANY, priority 2004, published 2008).
Where a SMILES comes first, the peptide text is derived from it. Where no end group is shown, it is not given here. [ ]: non-standard residue; d: D form. The star is where a group is joined. Orn = NCCC[C@H](N)C(=O)O; Hexanoyl = CCCCCC(=O)*; Aib = CC(C)(N)C(=O)O

How the values were obtained:
[1] = biological target: T1, human VPAC1 (Homo sapiens, UniProt P32241); assay: Filter binding assay, membranes of cells transiently transfected with human VPAC1, 125I-labeled VIP tracer (Table 2); design: expressed in transfected cells; settings: read-out: Human VPAC1 Receptor Binding
T1 sequence (P32241 31-457): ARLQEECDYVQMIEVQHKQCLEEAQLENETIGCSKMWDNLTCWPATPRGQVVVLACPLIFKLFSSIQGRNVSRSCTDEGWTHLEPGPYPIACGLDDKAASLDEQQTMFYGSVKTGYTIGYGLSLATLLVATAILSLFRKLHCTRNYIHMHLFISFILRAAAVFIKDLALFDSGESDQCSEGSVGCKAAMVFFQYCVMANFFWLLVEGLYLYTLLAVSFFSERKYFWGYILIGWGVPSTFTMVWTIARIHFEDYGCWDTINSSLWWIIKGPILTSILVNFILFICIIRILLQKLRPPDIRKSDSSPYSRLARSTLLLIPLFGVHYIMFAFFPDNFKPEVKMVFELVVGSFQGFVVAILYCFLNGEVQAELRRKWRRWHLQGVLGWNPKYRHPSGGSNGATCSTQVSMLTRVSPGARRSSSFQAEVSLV
Method in brief: (§1)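 Membranes 2.5 μg/well; tracer ~40000 cpm; buffer 25 mM HEPES pH 7.4, 0.5% protease-free BSA; 1 h incubation, shaking. Glass-fibre filtration (0.5% polyethyleneamine presoak, 0.2% BSA block), 3× HEPES wash, dry 1 h at 60° C, scintillation count.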

[2] = Rat serum stability studies (remaining active peptide by DiscoveRx cAMP on CHO-VPAC2 cells); assay type: in vitro ADME
Method in brief: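 EC50 from a DiscoveRx cAMP read-out on CHO-VPAC2 cells indexes how much peptide stays active after 18 h in rat serum at 37° C without aprotinin, against an aprotinin-protected 4° C aliquot.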

[3] = biological target: T2, human VPAC2 (Homo sapiens, UniProt P41587); assay: Alpha screen cAMP in vitro potency, human VPAC2 receptor; assay type: cell-based; settings: cAMP generation; single result from two analyses performed in a single run; read-out: Human VPAC2 Receptor: Alpha Screen EC50
T2 construct: expressed in transfected cells
T2 sequence (P41587 24-438): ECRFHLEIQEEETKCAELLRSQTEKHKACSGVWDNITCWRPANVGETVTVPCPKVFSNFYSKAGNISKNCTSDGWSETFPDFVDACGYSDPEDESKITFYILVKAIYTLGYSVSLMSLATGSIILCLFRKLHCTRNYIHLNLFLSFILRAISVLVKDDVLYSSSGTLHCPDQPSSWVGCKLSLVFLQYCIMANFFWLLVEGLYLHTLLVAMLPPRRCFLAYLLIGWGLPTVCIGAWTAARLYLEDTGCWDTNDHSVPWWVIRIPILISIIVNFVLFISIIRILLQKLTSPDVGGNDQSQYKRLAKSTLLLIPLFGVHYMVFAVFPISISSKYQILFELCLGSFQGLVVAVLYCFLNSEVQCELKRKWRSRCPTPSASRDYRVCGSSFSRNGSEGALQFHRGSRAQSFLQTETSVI
Method in brief: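 Cells were detached with enzyme-free dissociation buffer, washed into stimulation buffer and used at 50,000 cells per data point. Stimuli and AlphaScreen acceptor beads were added for 60 minutes, then lysis buffer with donor beads for 60 to 120 minutes; the AlphaScreen signal reports intracellular cAMP.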

[4] = biological target: T2, human VPAC2; assay: Filter binding assay, membranes of stable VPAC2 cell line, 125I-labeled VIP tracer (Table 2); settings: read-out: Human VPAC2 Receptor Binding
Method in brief: as §1

[5] = biological target: T3, human PAC1 (Homo sapiens, UniProt P41586); assay: Filter binding assay, membranes of cells transiently transfected with human PAC1, 125I-labeled PACAP-27 tracer (Table 2); design: expressed in transfected cells; settings: read-out: Human PAC1 Receptor Binding
T3 sequence (P41586 21-468): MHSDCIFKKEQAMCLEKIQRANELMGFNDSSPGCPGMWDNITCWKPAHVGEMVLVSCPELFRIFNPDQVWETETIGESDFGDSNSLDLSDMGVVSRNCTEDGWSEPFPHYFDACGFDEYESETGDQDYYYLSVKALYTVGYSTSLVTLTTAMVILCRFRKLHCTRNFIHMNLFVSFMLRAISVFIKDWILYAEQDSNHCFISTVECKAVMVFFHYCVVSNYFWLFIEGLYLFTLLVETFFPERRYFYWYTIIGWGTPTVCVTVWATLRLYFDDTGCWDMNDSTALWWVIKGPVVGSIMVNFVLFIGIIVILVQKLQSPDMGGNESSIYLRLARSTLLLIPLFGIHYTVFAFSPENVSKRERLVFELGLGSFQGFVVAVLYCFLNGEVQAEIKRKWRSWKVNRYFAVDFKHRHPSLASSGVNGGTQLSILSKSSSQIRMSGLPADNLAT
Method in brief: as §1

| Compound | IC50 [1] [nM] | Rat Serum Stability (estimated purity in % after 18 hours) [2] [%] | EC50 [3] [nM] | IC50 [4] [nM] | IC50 [5] [nM] |
| --- | --- | --- | --- | --- | --- |
| CCCCCC(=O)N[C@@H](Cc1c[nH]cn1)C(=O)N[C@@H](CO)C(=O)N[C@@H](CC(=O)O)C(=O)N[C@@H](C)C(=O)N[C@H](C(=O)N[C@@H](Cc1ccccc1)C(=O)N[C@H](C(=O)N[C@@H](CC(=O)O)C(=O)N[C@@H](CC(N)=O)C(=O)N[C@@H](Cc1ccc(O)cc1)C(=O)N[C@H](C(=O)N[C@@H](CCCNC(=N)N)C(=O)N[C@@H](CC(C)C)C(=O)N[C@@H](CCCNC(=N)N)C(=O)NC(C)(C)C(=O)N[C@@H](CCC(N)=O)C(=O)N[C@H](C(=O)N[C@@H](C)C(=O)N[C@@H](C)C(=O)N[C@@H](CCCCN)C(=O)NC(C)(C)C(=O)N[C@@H](Cc1ccc(O)cc1)C(=O)N[C@@H](CC(C)C)C(=O)N[C@@H](CCC(N)=O)C(=O)N[C@@H](CO)C(=O)N[C@H](C(=O)N[C@@H](CCCCN)C(=O)N[C@@H](CCC(N)=O)C(=O)NCC(=O)NCC(=O)N1CCC[C@H]1C(=O)N[C@@H](CO)C(=O)N[C@@H](CO)C(=O)NCC(=O)N[C@@H](C)C(=O)N1CCC[C@H]1C(=O)N1CCC[C@H]1C(=O)N1CCC[C@H]1C(=O)N[C@@H](CO)C(=O)O)[C@@H](C)CC)C(C)C)[C@@H](C)O)[C@@H](C)O)C(C)C [Agonist P298] (Hexanoyl-HSDAVFTDNYTRLR[Aib]QVAAK[Aib]YLQSIKQGGPSSGAPPPS-OH; C-terminus assumed) | > 3000 | 30.97 | 0.5 | 8.2 | > 25000 |
| Hexanoyl-HSDAVFTDNYTRLR[Aib]QVAALKYLQSIKNKRYGGPSSGAPPPS [Agonist P265] | > 3000 | 8.70 | 0.21 | 0.68 | > 25000 |
| Hexanoyl-HSDAVFTDNYTRL[Orn][Aib]QVAA[Aib]KYLQSIKNKRYGGPSSGAPPPS [Agonist P319] | > 3000 | 13.53 | 0.26 | 0.69 | > 25000 |
| Hexanoyl-HSDALFTDNYTRLRKQVAAKKYLQSIKNKRYGGPSSGAPPPS [Agonist P289] | 260 | 0.04 | 0.16 | 0.38 | 324 |
| Hexanoyl-HSDAVFTDNYTRLQKQVAAQKYLQSIKNKRYGGPSSGAPPPS [Agonist P252] | 1180 | 1.19 | 0.26 | 0.98 | > 25000 |
| Hexanoyl-HSDAVFTDNYTRLRKQVAAKKYVQSIKNKRYGGPSSGAPPPS [Agonist P234] | 641 | 0.69 | 0.16 | 0.33 | 248 |
| Hexanoyl-HSDAVFTKNYTRLRKQVAAKKYLQSIKNKRYGGPSSGAPPPS [Agonist P160] | 50.3 | <4.25 | 13.2 | 4.77 | 262 |
| Hexanoyl-HSDAVFTDNYTRLRKQVAAKKY[Aib]QSIKNKRYGGPSSGAPPPS [Agonist P236] | 589 | 0.79 | 0.12 | 0.37 | 225 |
| Hexanoyl-HSDAVFTDNYTRLRKQVAATKYLQSIKNKRYGGPSSGAPPPS [Agonist P152] | 514 | 0.06 | 0.17 | 0.37 | 672 |
| Hexanoyl-HSDAVFTDNYTRLRKQVAAKKYFQSIKNKRYGGPSSGAPPPS [Agonist P231] | 458 | 0.57 | 0.26 | 0.55 | 300 |
| Hexanoyl-HSDAVFTDNYTRLQ[Aib]QVAAKKYLQSIKNKRYGGPSSGAPPPS [Agonist P258] | > 3000 | 9.47 | 0.17 | 0.63 | > 25000 |
| Hexanoyl-HSDAVFTDNYTRLRRQVAAKKYLQSIKNKRYGGPSSGAPPPS [Agonist P176] | 93 | <0.14 | 0.28 | 6.88 | 227 |
| Hexanoyl-HSDAVFTDNYTRLRKQVAAYKYLQSIKNKRYGGPSSGAPPPS [Agonist P147] | 107 | 0.07 | 0.13 | 0.24 | 464 |
| Hexanoyl-HSDAVFTDNYTRLRKQVAAKKYIQSIKNKRYGGPSSGAPPPS [Agonist P233] | 323 | 1.27 | 0.11 | 0.31 | 320 |
| Hexanoyl-HSDAVFTDNYTRLRKQVAAVKYLQSIKNKRYGGPSSGAPPPS [Agonist P146] | 401 | 0.53 | 0.17 | 0.52 | 1540 |
| Hexanoyl-HSDAVFTDNYTRLQKQVAA[Aib]KYLQSIKNKRYGGPSSGAPPPS [Agonist P250] | 855 | 7.11 | 0.18 | 0.63 | > 25000 |
| Hexanoyl-HSDAVFTDNYTRLRKQVAAWKYLQSIKNKRYGGPSSGAPPPS [Agonist P153] | 181 | <0.16 | 0.11 | 0.7 | 1130 |
| Hexanoyl-HSDAVFTDNYTRLRKQVAAAKYLQSIKNKRYGGPSSGAPPPS [Agonist P181] | 325 | <0.53 | 0.13 | 0.29 | 522 |
| Hexanoyl-HSDAVFTDNYTRL[Aib]KQVAAKKYLQSIKNKRYGGPSSGAPPPS [Agonist P167] | 1150 | 14.98 | 0.17 | 1.14 | 1010 |
